Data taken from US8329726B2, “Inhibitors of VEGF receptor and HGF receptor signaling” (MethylGene Inc., priority 2005, dated 2012).
Where two headings read alike, the source gives them in different places.

Legend:
[1] = biological target: T1, recombinant human c-Met/HGF receptor (Homo sapiens, UniProt P08581); experiment: In vitro receptor tyrosine kinase assay (DELFIA), c-Met/HGF receptor; format: biochemical
T1 construct: His tag (pBlueBacHis2A vector); made in house; host or cells: Hi-5 cells (Trichoplusia ni), baculovirus
Protocol: Cell pellets were frozen at −80° C. until purification was performed.
(§1) The coated plates were washed and stored at 4° C. […] After incubation, the kinase reactions were quenched with EDTA and the plates were washed.

[2] = biological target: T2, VEGF receptor KDR (Homo sapiens, UniProt P35968); experiment: In vitro receptor tyrosine kinase assay (DELFIA), VEGF receptor KDR; format: biochemical
T2 construct: made in house; host or cells: Sf9 cells (Spodoptera frugiperda), baculovirus
Protocol: In the case of VEGF receptor KDR a 1.6-kb cDNA corresponding to the catalytic domain of VEGFR2 or KDR (Genbank accession number AF035121 amino acid 806 to 1356) was cloned into the Pst I site of the pDEST20 Gateway vector (Invitrogen) for the production of a GST-tagged version of that enzyme.
The GST-VEGFR2806-1356 protein was expressed in […] (Spodoptera frugiperda) upon infection with recombinant baculovirus construct. […] Cell pellets were frozen at −80° C. until purification was performed.
The supernatant (cell extract) was used as starting material for purification of GST-VEGFR2806-1356.
The supernatant was loaded onto a GST-agarose column (Sigma) equilibrated with PBS pH 7.3. Following a four column volume (CV) wash with PBS pH 7.3+1% Triton X-100 and 4 CV wash with buffer B (50 mM Tris pH 8.0, 20% glycerol and 100 mM NaCl), bound proteins were step eluted with 5 CV of buffer B supplemented with 5 mM DTT and 15 mM glutathion. GST-VEGFR2806-1356 enriched fractions from this chromatography step were pooled based on U.V. trace i.e. fractions with high O.D.280. Final GST-VEGFR2806-1356 protein preparations concentrations were about 0.7 mg/ml with purity approximating 70%.
as §1

[3] = tested on: A549; experiment: A549 wound healing inhibition (HGF dependent migration); format: cell-based; settings: Homo sapiens, A549 cells, read-out: A549 WOUND HEALING INHIB IC50
Description: (§2) HGF has well known activity in terms of inducing scattering and migration (wound healing) (Wells et al., Cell Motil Cytoskeleton. 2005 November 62(3):180-94; Miura et al., Urology 2001 December 58(6):1064-9; Nishimura et al., Int J Urol. 1998 May 5(3):276-81; Wang et al., Mol Cancer Ther. 2003 November; 2(11):1085-92; and Christensen et al., Cancer Res. 2003 Nov. 1; 63(21):7345-55).

[4] = tested on: DU145; experiment: DU145 scattering inhibition (HGF dependent scattering); format: cell-based; settings: Homo sapiens
Description: as §2

[5] = DU-145, HGF dependent scattering, DU145 cells, read-out: DU145 SCATTERING INHIB IC50
[6] = DU-145, read-out: DU145 […] IC50
[7] = recombinant c-Met IC, 10 uM ATP, DELFIA, read-out: C-Met (IC50)
[8] = GST-VEGFR2 806-1356, 0.6 uM ATP, DELFIA, read-out: VEGFR (IC50)

T1 sequence (P08581 1078-1337): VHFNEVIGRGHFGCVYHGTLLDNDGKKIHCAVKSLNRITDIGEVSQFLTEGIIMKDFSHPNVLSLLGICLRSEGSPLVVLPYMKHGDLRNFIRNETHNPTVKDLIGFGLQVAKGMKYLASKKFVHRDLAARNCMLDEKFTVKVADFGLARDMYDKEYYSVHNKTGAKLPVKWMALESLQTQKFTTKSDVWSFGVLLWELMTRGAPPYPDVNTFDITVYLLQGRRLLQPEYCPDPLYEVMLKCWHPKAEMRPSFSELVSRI
T2 sequence (P35968 806-1356): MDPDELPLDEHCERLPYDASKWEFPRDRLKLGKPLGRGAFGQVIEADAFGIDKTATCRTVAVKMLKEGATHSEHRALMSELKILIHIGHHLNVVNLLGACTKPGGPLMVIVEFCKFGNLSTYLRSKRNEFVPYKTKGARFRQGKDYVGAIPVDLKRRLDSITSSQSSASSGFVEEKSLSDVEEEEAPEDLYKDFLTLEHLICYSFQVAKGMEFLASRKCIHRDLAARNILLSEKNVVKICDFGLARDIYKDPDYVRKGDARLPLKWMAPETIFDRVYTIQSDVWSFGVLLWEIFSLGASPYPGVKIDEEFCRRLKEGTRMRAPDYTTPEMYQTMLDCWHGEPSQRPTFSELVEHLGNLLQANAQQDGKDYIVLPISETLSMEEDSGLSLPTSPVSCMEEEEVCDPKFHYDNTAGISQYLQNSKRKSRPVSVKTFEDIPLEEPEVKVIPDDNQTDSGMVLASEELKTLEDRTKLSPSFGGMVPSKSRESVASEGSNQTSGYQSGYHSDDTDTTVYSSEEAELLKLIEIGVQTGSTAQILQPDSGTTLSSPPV

| SMILES | IC50 ([1]; read-out: CMET IC50) [nM] | IC50 ([2]; read-out: VEGFR IC50) [nM] | IC50 [3] [nM] | IC50 [4, 5] [nM] | IC50 [1, 7] [nM] | IC50 [2, 8] [nM] | IC50 [4, 6] [nM] | IC50 [1] [nM] |
| --- | --- | --- | --- | --- | --- | --- | --- | --- |
| CCn1cnc(-c2cc3nccc(Oc4ccc(NC(=O)CC(=O)Nc5ccccc5O)cc4F)c3s2)c1 | < 50 | < 50 | 1000 to 5000 | 1000 to 5000 |  |  |  |  |
| Cn1cnc(-c2cc3nccc(Oc4ccc(NC(=O)C5(C(=O)Nc6ccccc6)CC5)cc4F)c3s2)c1 | < 50 | < 50 | < 1000 | < 1000 |  |  |  |  |
| O=C(Nc1ccc(Oc2ccnc3cc(-c4cn(CCN5CCCC5)cn4)sc23)c(F)c1)C1(C(=O)Nc2ccccc2F)CC1 | < 50 | < 50 | 1000 to 5000 | < 1000 |  |  |  |  |
| Cn1cnc(-c2cc3nccc(Oc4ccc(NC(CC(=O)Nc5ccccc5)C(F)(F)F)cc4F)c3s2)c1 (stereo not drawn) |  | < 50 | 1000 to 5000 |  |  |  | 1000 to 5000 |  |
| CCn1cnc(-c2cc3nccc(Oc4ccc(NC(=O)C5(C(=O)Nc6ccccc6)CC5)cc4F)c3s2)c1 [drawing 317] | < 50 | < 50 | < 1000 | < 1000 |  |  |  |  |
| CCn1cnc(-c2cc3nccc(Oc4ccc(NC(=O)C(=O)NCCc5ccccc5OC)cc4F)c3s2)c1 | 50 to 250 | < 50 | 1000 to 5000 | > 10000 |  |  |  |  |
| CN(C)CCn1cnc(-c2cc3nccc(Oc4ccc(NC(=O)CC(=O)Nc5ccccc5F)cc4F)c3s2)c1 | < 50 | < 50 | < 1000 | < 1000 |  |  |  |  |
| COc1ccccc1NC(=O)CC(=O)Nc1ccc(Oc2ccnc3cc(-c4cccc(CN(C)C)c4)sc23)c(F)c1 | < 50 | 50 to 250 | < 1000 | < 1000 |  |  |  |  |
| COCCNCc1ccc(-c2cc3nccc(Oc4ccc(NC(=O)N5CCN(c6ccc(F)cc6)C5=O)cc4F)c3s2)cc1 | < 50 | < 50 | < 1000 | < 1000 |  |  |  |  |
| Cn1cnc(-c2cc3nccc(Oc4ccc(NC(=O)N5CCN(c6ccccc6)C5=O)cc4F)c3s2)c1 |  | < 50 | < 1000 |  |  |  | < 1000 |  |
| CCn1cnc(-c2cc3nccc(Oc4ccc(NC(=O)CC(=O)Nc5ccccc5OC)cc4F)c3s2)c1 [Compound 28b, N^1-(4-(2-(1-Ethyl-1H-imidazol-4-yl)thieno[3,2-b]pyridin-7-yloxy)-3-fluorophenyl)-N^3-(2-methoxyphenyl)malonamide] |  |  |  |  | 25 | 3 |  |  |
| CN(c1ccc(NC(=O)C2(C(=O)Nc3ccccc3)CC2)cc1F)c1ccnc2cc(-c3cn(C)cn3)sc12 | 50 to 250 |  | 1000 to 5000 | < 1000 |  |  |  |  |
| O=C(CC(=O)Nc1ccc(Oc2ccnc3cc(C(=O)N4CCCC4)sc23)c(F)c1)Nc1ccccc1 [drawing 280] | < 50 | < 50 |  |  |  |  |  |  |
| CCn1cnc(-c2cc3nccc(Oc4ccc(NC(=O)CC(=O)Nc5ccccc5)cc4F)c3s2)c1 [Compound 5d, N^1-(4-(2-(1-Ethyl-1H-imidazol-4-yl)thieno[3,2-b]pyridin-7-yloxy)-3-fluorophenyl)-N^3-phenylmalonamide] |  |  |  |  |  | 5 |  | 19 |
| Cn1cnc(-c2cc3nccc(Oc4ccc(NC(=O)CC(Nc5ccccc5)C(F)(F)F)cc4F)c3s2)c1 (stereo not drawn) |  | 50 to 250 | 1000 to 5000 |  |  |  | 1000 to 5000 |  |
| CC(C(=O)Nc1ccccc1)C(=O)Nc1ccc(Oc2ccnc3cc(-c4nccn4C)sc23)c(F)c1 (stereo not drawn) [Compound 38, N^1-(3-Fluoro-4-(2-(1-methyl-1H-imidazol-2-yl)thieno[3,2-b]pyridin-7-yloxy)phenyl)-2-methyl-N^3-phenylmalonamide] |  |  |  |  | 77 | 5 |  |  |
| COc1ccccc1NC(=O)CC(=O)Nc1ccc(Oc2ccnc3cc(-c4ccc(CN5CCCC5)cc4)sc23)c(F)c1 [Compound 48, N^1-(3-Fluoro-4-(2-(4-(pyrrolidin-1-ylmethyl)phenyl)-thieno[3,2-b]pyridin-7-yloxy)phenyl)-N^3-(2-methoxyphenyl)malonamide] |  |  |  |  | 60 | 13 |  |  |
| Cn1ccnc1-c1cc2nccc(Oc3ccc(NC(=O)CC(=O)Oc4ccccc4)cc3F)c2s1 [Compound 47, N-{3-Fluoro-4-[2-(1-methyl-1H-imidazol-2-yl)-thieno[3,2-b]pyridin-7-yloxy]-phenyl}-malonamic acid phenyl ester] |  |  |  |  | 173 | 14 |  |  |
| O=C(CC(=O)Nc1ccc(Oc2ccnc3ccsc23)c(F)c1)Nc1ccccc1 [Compound 5a, N^1-(3-Fluoro-4-(thieno[3,2-b]pyridin-7-yloxy)phenyl)-N^3-phenylmalonamide] |  |  |  |  | 270 | 199 |  |  |
| CCn1cnc(-c2cc3nccc(Oc4ccc(NC(=O)CC(=O)Nc5ccccc5)cc4F)c3s2)c1 [drawing 291] | < 50 | 50 to 250 |  |  |  |  |  |  |

More lines, main results first:

| IC50 ([1]; read-out: CMET IC50) [nM] | IC50 ([2]; read-out: VEGFR IC50) [nM] | IC50 [3] [nM] | IC50 [4, 5] [nM] | IC50 [1, 7] [nM] | IC50 [2, 8] [nM] | SMILES | IC50 [4, 6] [nM] | IC50 [1] [nM] |
| --- | --- | --- | --- | --- | --- | --- | --- | --- |
| 50 to 250 | < 50 | < 1000 | < 1000 |  |  | CN1CCN(CCN(C)Cc2cccc(-c3cc4nccc(Oc5ccc(NC(=O)CC(=O)N(C)c6ccccc6)cc5F)c4s3)c2)CC1 |  |  |
| < 50 | < 50 | < 1000 | < 1000 |  |  | O=C(Nc1ccc(Oc2ccnc3cc(-c4ccc(CN5CCNCC5)cc4)sc23)c(F)c1)N1CCN(c2ccccc2)C1=O |  |  |
| 50 to 250 | > 500 | 1000 to 5000 | > 10000 |  |  | COc1ccccc1NC(=O)CC(=O)Nc1ccc(Oc2ccnc3cc(-c4cccc(OCCCNC(=N)N)c4)sc23)c(F)c1 |  |  |
| < 50 | < 50 | < 1000 | < 1000 |  |  | CCn1cc(-c2cc3nccc(Oc4ccc(NC(=O)CC(=O)Nc5ccccc5OC)cc4F)c3s2)nc1CN(C)C |  |  |
| 50 to 250 | 50 to 250 | 1000 to 5000 | 1000 to 5000 |  |  | CCn1cncc1-c1cc2nccc(Oc3ccc(NC(=O)CC(=O)Nc4ccccc4F)cc3F)c2s1 |  |  |
| < 50 | < 50 | 1000 to 5000 | < 1000 |  |  | CCCn1cnc(-c2cc3nccc(Oc4ccc(NC(=O)CC(=O)Nc5ccccc5OC)cc4F)c3s2)c1 |  |  |
| < 50 | 50 to 250 | < 1000 | < 1000 |  |  | Cn1cnc(-c2cc3nccc(Nc4ccc(NC(=O)C5(C(=O)Nc6ccccc6)CC5)cc4F)c3s2)c1 |  |  |
| < 50 | < 50 | 1000 to 5000 | < 1000 |  |  | CCn1cnc(-c2cc3nccc(Oc4ccc(NC(=O)N5CCN(c6ccccc6OC)C5=O)cc4F)c3s2)c1 |  |  |
| 50 to 250 | 50 to 250 | > 10000 | > 10000 |  |  | COc1ccccc1NC(=O)CC(=O)Nc1ccc(Oc2ccnc3cc(C#CCN(C)C)sc23)c(F)c1 |  |  |
|  |  |  |  | 65 | 89 | CN(C)[C@@H]1CCN(C(=O)c2cc3nccc(Oc4ccc(NC(=O)CC(=O)Nc5ccccc5)cc4F)c3s2)C1 [Compound 5g, (R)—N^1-(4-(2-(3-(Dimethylamino)pyrrolidine-1-carbonyl)thieno[3,2-b]pyridin-7-yloxy)-3-fluorophenyl)-N^3-phenylmalonamide] |  |  |
| 250 to 500 | < 50 | 5000 to 10000 | > 10000 |  |  | COc1ccccc1CCNC(=O)C(=O)Nc1ccc(Oc2ccnc3cc(-c4cn(C)cn4)sc23)c(F)c1 |  |  |
| 50 to 250 | < 50 | < 1000 | < 1000 |  |  | CCn1cnc(-c2cc3nccc(Oc4ccc(NC(=O)CC(=O)NC5CCCCC5)cc4F)c3s2)c1 |  |  |
| < 50 | < 50 | < 1000 | < 1000 |  |  | CCCn1cnc(-c2cc3nccc(Oc4ccc(NC(=O)CC(=O)Nc5ccccc5F)cc4F)c3s2)c1 |  |  |
| < 50 | < 50 | 1000 to 5000 | < 1000 |  |  | Cn1cnc(-c2cc3nccc(Oc4ccc(NC(=O)N5CCN(C6CCCCC6)C5=O)cc4F)c3s2)c1 |  |  |
|  |  |  |  | 132 | 24 | Cn1cncc1-c1cc2nccc(Oc3ccc(NC(=O)CC(=O)Nc4cccnc4)cc3F)c2s1 [Compound 41, N-{3-Fluoro-4-[2-(3-methyl-3H-imidazol-4-yl)-thieno[3,2-b]pyridin-7-yloxy]-phenyl}-N′-pyridin-3-yl-malonamide] |  |  |
|  |  |  |  | 24 |  | CCn1cnc(-c2cc3nccc(Oc4ccc(NC(=O)CC(=O)Nc5ccccc5F)cc4F)c3s2)c1 [Compound 30b, N^1-(4-(2-(1-Ethyl-1H-imidazol-4-yl)thieno[3,2-b]pyridin-7-yloxy)-3-fluorophenyl)-N^3-(2-fluorophenyl)malonamide] |  |  |
